melting point [°C] | Structure (SMILES)
155 to 156 | Cc1oc(-c2ccc(F)cc2)cc1C(=O)N(C)c1cccc(CSCC(=O)O)c1 [Example 1(1), [(3{[5-(4-Fluorophenyl)-2-methyl-3-furoyl](methyl)amino}benzyl)thio]acetic acid]
140 to 141 | CCCN(C(=O)c1cc(-c2ccc(F)cc2)oc1C)c1cccc(CSCC(=O)O)c1 [Example 1(2), [(3{[5-(4-Fluorophenyl)-2-methyl-3-furoyl](propyl)amino}benzyl)thio]acetic acid]
173 to 174 | O=C(O)CSCc1cccc(NC(=O)c2ccc(-c3ccc(Cl)cc3)o2)c1 [Example 2(3), [(3-{[5-(4-Chlorophenyl)-2-furoyl]amino}benzyl]thio]acetic acid]
137 to 138 | CCCCc1oc(-c2ccc(C(F)(F)F)cc2)cc1CCC(=O)Nc1cccc(CSCC(=O)O)c1 [Example 2(5), ({3-[(3-{2-Butyl-5-[4-(trifluoromethyl)phenyl]-3-furyl}propionyl)amino)benzyl}thio) acetic acid]
173 to 174 | Cc1oc(-c2ccc(C(F)(F)F)cc2)cc1CC(=O)Nc1cccc(CSCC(=O)O)c1 [Example 4(1), ({3-[({2-Methyl-5-[4-(trifluoromethyl)phenyl]-3-furyl}acetyl)amino]benzyl}thio)acetic acid]
200 to 202 | Cc1oc(-c2ccc(OC(F)(F)F)cc2)cc1C(=O)Nc1cccc(CSCC(=O)O)c1 [Example 4(2)]
84 to 85 | O=C(O)CSCc1cccc(OCc2cc(-c3ccccc3)oc2C(F)(F)F)c1 [Example 5(4), [(3-{[5-Phenyl-2-(trifluoromethyl)-3-furyl]methoxy}benzyl)thio]acetic acid]
147 to 149 | Cc1cc(OCc2cc(-c3ccc(C(F)(F)F)cc3)oc2C)ccc1CC(=O)O [Example 6(3), [2-Methyl-4-({2-methyl-5-[4-(trifluoromethyl)phenyl]-3-furyl}methoxy)phenyl]acetic acid]
134 to 135 | Cc1oc(-c2ccc(C(F)(F)F)cc2)cc1COc1ccc(OC(C)(C)C(=O)O)cc1 [Example 6(5), 2-Methyl-2-[4-({2-methyl-5-[4-(trifluoromethyl)phenyl]-3-furyl}methoxy)phenoxy]propionic acid]
113 to 114 | Cc1oc(-c2ccc(C(F)(F)F)cc2)cc1CCCOc1ccc(CC(=O)O)cc1 [Example 6(8), [4-(3-{2-Methyl-5-[4-(trifluoromethyl)phenyl]-3-furyl}propoxy)phenyl]acetic acid]
147 to 149 | Cc1oc(-c2ccc(C(F)(F)F)cc2)cc1COc1ccc(CC(=O)O)cc1 [Example 6(9), [4-({2-Methyl-5-[4-(trifluoromethyl)phenyl]-3-furyl}methoxy)phenyl]acetic acid]
168 to 169 | COc1cc(OCc2cc(-c3ccc(C(F)(F)F)cc3)oc2C)ccc1CC(=O)O [Example 6(10), [2-Methoxy-4-({2-methyl-5-[4-(trifluoromethyl)phenyl]-3-furyl}methoxy)phenyl]acetic acid]
109 to 110 | Cc1oc(-c2ccc(F)cc2)cc1COc1cccc(COCC(=O)O)c1 [Example 6(11), [(3-{[5-(4-Fluorophenyl)-2-methyl-3-furyl]methoxy}benzyl)oxy]acetic acid]
115 to 116 | Cc1oc(-c2ccc(C(F)(F)F)cc2)cc1CCOc1ccc(CC(=O)O)cc1 [Example 6(13), [4-(2-{2-Methyl-5-[4-(trifluoromethyl)phenyl]-3-furyl}ethoxy)phenyl]acetic acid]
80 to 82 | CCCCc1oc(-c2ccc(C(F)(F)F)cc2)cc1CCCOc1cccc(CC(=O)O)c1 [Example 6(15), [3-(3-{2-Butyl-5-[4-(trifluoromethyl)phenyl]-3-furyl}propoxy)phenyl]acetic acid]
96 to 97 | CCCCc1oc(-c2ccc(C(F)(F)F)cc2)cc1CCCOc1ccc(CC(=O)O)cc1 [Example 6(16), [4-(3-{2-Butyl-5-[4-(trifluoromethyl)phenyl]-3-furyl}propoxy)phenyl]acetic acid]
202 to 205 | Cc1nc(SCc2cc(-c3ccc(F)cc3)oc2C)sc1CC(=O)O [Example 6(18), [2-({[5-(4-Fluorophenyl)-2-methyl-3-furyl]methyl}thio)-4-methyl-1,3-thiazol-5-yl]acetic acid]
98 to 99 | Cc1oc(-c2ccc(F)cc2)cc1COc1cccc(CCCC(=O)O)c1 [Example 6(19), 4-(3-{[5-(4-Fluorophenyl)-2-methyl-3-furyl]methoxy}phenyl)butanoic acid]
118 to 120 | Cc1cc(OCCc2cc(-c3ccc(C(F)(F)F)cc3)oc2C)ccc1CCC(=O)O [Example 6(22), 3-[2-Methyl-4-(2-{2-methyl-5-[4-(trifluoromethyl)phenyl]-3-furyl}ethoxy)phenyl]propionic acid]

melting point [°C] | Structure (SMILES)
132 to 133 | Cc1oc(-c2ccc(C(F)(F)F)cc2)cc1CCOc1ccc(OCC(=O)O)cc1 [Example 6(23), [4-(2-{2-Methyl-5-[4-(trifluoromethyl)phenyl]-3-furyl}ethoxy)phenoxy]acetic acid]
134 to 135 | Cc1oc(-c2ccc(C(F)(F)F)cc2)cc1CCCOc1ccc(OCC(=O)O)cc1 [Example 6(25), [4-(3-{2-Methyl-5-[4-(trifluoromethyl)phenyl]-3-furyl}propoxy)phenoxy]acetic acid]
121 to 122 | CCc1oc(-c2ccc(C(F)(F)F)cc2)cc1CCCOc1ccc(CC(=O)O)cc1 [Example 6(27), [4-(3-{2-Ethyl-5-[4-(trifluoromethyl)phenyl]-3-furyl}propoxy)phenyl]acetic acid]
123 to 124 | Cc1oc(-c2ccc(C(F)(F)F)cc2)cc1CCCOc1ccc(OC(C)(C)C(=O)O)cc1 [Example 6(31), 2-Methyl-2-[4-(3-{2-methyl-5-[4-(trifluoromethyl)phenyl]-3-furyl}propoxy)phenoxy]propionic acid]
191 to 192 | Cc1oc(-c2ccc(C(F)(F)F)cc2)cc1COc1ccc2cc(CCC(=O)O)ccc2c1 [Example 6(34), 3-[6-({2-Methyl-5-[4-(trifluoromethyl)phenyl]-3-furyl}methoxy)-2-naphthyl]propionic acid]
124 to 126 | Cc1nc(SCCc2cc(-c3ccc(F)cc3)oc2C)sc1CC(=O)O [Example 6(38), [2-({2-[5-(4-Fluorophenyl)-2-methyl-3-furyl]ethyl}thio)-4-methyl-1,3-thiazol-5-yl]acetic acid]
138 to 139 | CCc1oc(-c2ccc(C(F)(F)F)cc2)cc1CCCOc1ccc(OC)c(CC(=O)O)c1 [Example 6(39), [5-(3-{2-Ethyl-5-[4-(trifluoromethyl)phenyl]-3-furyl}propoxy)-2-methoxyphenyl]acetic acid]
137 to 138 | CCc1oc(-c2ccc(C(F)(F)F)cc2)cc1CCCOc1cc(CC(=O)O)ccc1OC [Example 6(40), [3-(3-{2-Ethyl-5-[4-(trifluoromethyl)phenyl]-3-furyl}propoxy)-4-methoxyphenyl]acetic acid]
102 to 103 | CCc1oc(-c2ccc(C(F)(F)F)cc2)cc1CCCOc1ccc(C(C)(C)C(=O)O)cc1 [Example 6(44), 2-[4-(3-{2-Ethyl-5-[4-(trifluoromethyl)phenyl]-3-furyl}propoxy)phenyl]-2-methylpropionic acid]
94 to 95 | CCc1oc(-c2ccc(C(F)(F)F)cc2)cc1CCCOc1cccc(C(C)(C)C(=O)O)c1 [Example 6(45), 2-[3-(3-{2-Ethyl-5-[4-(trifluoromethyl)phenyl]-3-furyl}propoxy)phenyl]-2-methylpropionic acid]
91 to 93 | CCc1oc(-c2ccc(C(F)(F)F)cc2)cc1CCCOc1cc(CC(=O)O)ccc1F [Example 6(46), [3-(3-{2-Ethyl-5-[4-(trifluoromethyl)phenyl]-3-furyl}propoxy)-4-fluorophenyl]acetic acid]
128 to 129 | CCc1oc(-c2ccc(C(F)(F)F)cc2)cc1CCCOc1ccc(F)c(CC(=O)O)c1 [Example 6(47), [5-(3-{2-Ethyl-5-[4-(trifluoromethyl)phenyl]-3-furyl}propoxy)-2-fluorophenyl]acetic acid]
109 to 110 | CCc1oc(-c2ccc(C(F)(F)F)cc2)cc1CCCOc1cccc(CC(=O)O)c1C [Example 6(50), [3-(3-{2-Ethyl-5-[4-(trifluoromethyl)phenyl]-3-furyl}propoxy)-2-methylphenyl]acetic acid]
174 to 176 | COc1cccc(-c2cc(CSc3nc(C)c(CC(=O)O)s3)c(C)o2)c1 [Example 6(53), [2-({[5-(3-Methoxyphenyl)-2-methyl-3-furyl]methyl}thio)-4-methyl-1,3-thiazol-5-yl]acetic acid]
81 to 82 | Cc1oc(-c2cccc(C(F)(F)F)c2)cc1COc1cccc(CSC(C)(C)C(=O)O)c1 [Example 6(59), 2-Methyl-2-{[3-({2-methyl-5-[3-(trifluoromethyl)phenyl]-3-furyl}methoxy)benzyl]thio}propionic acid]
111 to 112 | COc1cccc(-c2cc(COc3ccc(OC(C)(C)C(=O)O)cc3)c(C)o2)c1 [Example 6(60), 2-(4-{[5-(3-Methoxyphenyl)-2-methyl-3-furyl]methoxy}phenoxy)-2-methylpropionic acid]
83 to 84 | Cc1oc(-c2cccc(C(F)(F)F)c2)cc1COc1ccc(OC(C)(C)C(=O)O)cc1 [Example 6(63), 2-Methyl-2-[4-({2-methyl-5-[3-(trifluoromethyl)phenyl]-3-furyl}methoxy)phenoxy]propionic acid]
89 to 90 | Cc1oc(-c2ccc(F)cc2)cc1COc1cccc(C(C)SC(C)(C)C(=O)O)c1 (centres unmarked) [Example 6(65), 2-{[1-(3-{[5-(4-Fluorophenyl)-2-methyl-3-furyl]methoxy}phenyl)ethyl]thio}-2-methylpropionic acid]
75 to 77 | Cc1oc(-c2ccc(C(F)(F)F)cc2)cc1COc1cccc(C(C)SC(C)(C)C(=O)O)c1 (centres unmarked) [Example 6(66), 2-Methyl-2-({1-[3-({2-methyl-5-[4-(trifluoromethyl)phenyl]-3-furyl}methoxy)phenyl]ethyl}thio)propionic acid]
